Experimental data: patent US20250339569A1, “CARBONIC ANHYDRASE IX LIGANDS” (priority 2021, published 2025)
Starred links: 1 amine or outer side, 2 acyl side, 3 side chain; linkers in the order of their positions; H or OH if unused. Positions of bridges follow the written chain, without caps; N, C: chain ends. Residues, ends and D or L forms follow the SMILES beside them. *: point of attachment. X47 = NC(=O)[C@H](CCCCNC(=O)CCCC[C@@H]1SC[C@@H]2NC(=O)N[C@@H]21)NC(=O)CCC(=O)NCCCOCCOCCOCCCN*; mXylylene = c1cc(C[*:1])cc(C[*:2])c1

Legend:
[1] = target: T1, CAIX-expressing human HT-29 colorectal cancer cells (Homo sapiens, UniProt Q16790); test: FACS binding assay (EC50 determination, labeled compound); details: biotinylated or fluorophore-labeled compound, HT-29 cells, 4°C, 1 hour, read-out: pEC50 category (activity) (converted)
T1 construct: CAIX-expressing human HT-29 colorectal cancer cells; host or cells: HT-29 human colorectal cancer cells
Procedure: In order to determine binding of compounds according to the present invention to CAIX-expressing cells, a FACS binding assay was established.
CAIX-expressing human HT-29 colorectal cancer cells (DSMZ, RRID: CVCL_0320) were cultured in McCoys's 5A modified medium (Biochrom, #F1015) including 10% fetal calf serum (FCS), 2 mM L-glutamine, 100 U/ml penicillin and 100 μg/mL streptomycin. Cells were detached with Accutase (Biolegend, #423201) and washed in FACS buffer (PBS including 1% FCS). Cells were diluted in FACS buffer to a final concentration of 500.000 cells per ml. 200 μL of the cell suspension were transferred to a u-shaped non-binding 96-well plate (Greiner) and cells were washed in ice-cold FACS buffer.
When biotinylated compounds were used an additional incubation step with 1 μg/mL APC-Streptavidin (Miltenyi; #130-106-791) in 50 μL FACS buffer for 30 minutes on ice was performed.
Cells were washed twice with ice-cold FACS buffer and analyzed in an Attune NxT flow cytometer (Thermo Fisher). Median fluorescence intensities (MFI) of the APC/Cy5-channel were calculated by Attune NxT software. MFI values were plotted against peptide concentration and four parameter logistic (4PL) curve fitting and EC50/pEC50 or IC50/pIC50 calculations were performed using ActivityBase software.

[2] = test system: SK-RC-52 (ccRCC) human cancer cell line xenograft; test: In vivo efficacy, uptake and tolerability of 177Lu-DPI-4452 (and 68Ga-DPI-4452) in SK-RC-52 xenograft mouse model; set-up: species or system NMRI nude mice; details: SK-RC-52 model; for tolerability of treatment: 177Lu 33 or 100 MBq or 3×33 MBq, 68Ga 10 MBq, i.v.; for uptake in tumor compared to kidney and liver: SPECT/CT 4 h (177Lu) or PET/CT 1 h (68Ga)
Procedure: (§1) The human colorectal cancer cell line HT-29 was cultured in Modified McCoy's 5a Medium supplemented with 10% FBS+1% Pen/Strep, and the human clear cell renal cancer cell line SK-RC-52 was cultured in RPMI-1640 GlutaMax-I supplemented with 10% FBS+1% Pen/Strep.
(§2) 2×10^6 cells were suspended in 100 μL PBS and Matrigel (1:1) and subcutaneously implanted into the neck of anesthetized female immunodeficient NMRI nude mice. Tumor volume (0.52×(length×width^2)) and animal weight was monitored twice weekly until 42 days post treatment initiation. Animals were humanely euthanized by cervical dislocation at predefined study or humane endpoints.
(§3) Animals were randomized into equal groups based on tumor volume and body weight. Treatments were initiated at a mean group tumor volume of 140-180 mm^3 and administered intravenously in the tail vein in a 100 μL dosing volume.
(§4) For both models, treatment groups consisted of 10 mice per group and received either a A) Single administration (day 1) of vehicle, B) Single administration (day 1) of 100 MBq of ^177Lu-DPI-4452, C) Single administration (day 1) of 33 MBq of ^177Lu-DPI-4452 or D) Three administrations (day 1, 8, 15) of 33 MBq of ^177Lu-DPI-4452. To correlate the ^68Ga-DPI-4452 signal with the ^177Lu-DPI-4452 uptake in tumors, an additional satellite group E of 6 mice received a single administration (day 1) of 10 MBq of ^68Ga-DPI-4452 followed by a single administration (day 8) of 33 MBq of ^177Lu-DPI-4452.
(§5) In groups A-D, radioactivity uptake (as % of injected dose/gram tissue) was assessed in the tumor, kidney, and liver in 3 animals per treatment group by whole-body SPECT/CT imaging (nanoScan SPECT/CT, Mediso) at 4 h after each ^177Lu-DPI-4452 administration, using the following parameters: • Imaging bed: Two/three mice bed • CT acquisition • Helical scan, 480 projections • Pitch=1.0 • Voltage=50 kVp • Exposure=170 ms • SPECT acquisition: • Pinhole SPECT • Energy windows: Primor Peak 208 full width: 20%, Secondary 112.9, Tertiary: 56.1 keV • Acquisition time: Up to 30 min • Frame time: 30 s
(§6) In the satellite mice (group E), radioactivity uptake (as % of injected dose/gram tissue) was assessed in the tumor, kidney, and liver in all 6 animals by both whole-body SPECT imaging at 4 h after administration of 33 MBq ^177Lu-DPI-4452, and by whole-body PET/CT imaging (nanoScan PET/CT, Mediso) at 1 h after 10 MBq ^68Ga-DPI-4452 administration, using the following parameters: • Animals per bed: 3 • PET acquisition time: Up to 10 min • PET acquisition start: 1 hour after injection
(§7) One week later the 6 satellite mice were then assessed again for radioactivity uptake by whole-body SPECT/CT imaging at 4 h after the single ^177Lu-DPI-4452 administration using parameters as described above.
(§8) For both models blood sampling for hematology was performed on all animals in group A-D at study day −1, 7, 14 and at study end. Each mouse was restrained and 200 μl blood was obtained from the sublingual or jugular vein in EDTA-tubes and analyzed on the sampling day on a ProCyte Dx Hematology Analyzer with mouse settings. In addition, for the SK-RC-52 model at study day 14 and at study end (day 43), excess blood from the hematology analysis was spun and plasma was obtained (centrifugation at 2000 g for 10 mins at 4° C. in EDTA tubes). The plasma was analyzed for creatinine and urea concentrations using a KONELAB PRIME 30i instrument (Thermo Fisher Scientific).

[3] = test system: HT-29 (CRC) human cancer cell line xenograft; test: In vivo efficacy, uptake and tolerability of 177Lu-DPI-4452 (and 68Ga-DPI-4452) in HT-29 xenograft mouse model; set-up: species or system NMRI nude mice; details: HT-29 model; for tolerability of treatment: 177Lu 33 or 100 MBq or 3×33 MBq, 68Ga 10 MBq, i.v.; for uptake in tumor compared to kidney and liver: SPECT/CT 4 h (177Lu) or PET/CT 1 h (68Ga)
Procedure: as §1, §2, §3, §4, §5, §6, §7, §8

human CAIX = human CAIX (Homo sapiens, UniProt Q16790); test: In vitro SPR binding assay of DPI-4452, natLu-DPI-4452 and natGa-DPI-4452 to CAIX (anti-human Fc capture); set-up: purchased SinoBliological (Sino Biological) 10107-H02H; details: SPR
Procedure: Surface Plasmon Resonance (SPR) studies were performed on a Biacore™ T200 using a ligand capture approach. Basically, anti-human Fc antibodies were immobilized on the surface of a sensor chip and CAIX was captured on the functionalized surface via its Fc Tag.
Then, each compound was injected at increasing concentrations on the captured CAIX in order to measure the in real-time interaction of the compound to its target (i.e. the captured CAIX). The in real-time monitoring of the association and dissociation of the interaction gives access to the interaction kinetics parameters (i.e. the association and dissociation rate constants and the resulting affinity constants).
• A series S CM5 sensor chip was used (Cytiva). • All reagents used for the immobilization procedure were part of the Amine Coupling Kit, type 2 and/or the Human Antibody Capture Kit (Cytiva). The running buffer (HBS-EP+) was prepared by 10-fold dilution of the stock HBS-EP+ 10× solution (Cytiva). • Anti-human Fc antibodies stock solution (0.5 mg/mL in 0.15 M NaCl) was diluted in 10 mM sodium acetate pH 5.0 to a final concentration of 25 μg/mL directly into a plastic vial 7 mm. • Amine coupling reagents were transferred into plastic vials 7 mm as follow: • 95 μL of 0.4 M 1-ethyl-3-(3-dimethylaminopropyl)carbodiimide (EDC). • 95 μL of 0.1 M N-hydroxysuccinimide (NHS). • An empty plastic vial 7 mm was added in the Biacore™ sample rack for mixing. • 150 μL of 1 M ethamolamine-HCl, pH 8.5. • Plastic vials were closed with rubber caps and the sample rack was inserted into the Biacore™ T200 sample compartment. • The Biacore™ T200 Amine Wizard was used to immobilize the anti-Human Fc antibodies on the four flow-cells of a series S CM5 sensor chip simultaneously with defined contact time of 360 seconds and flow-rate of 5 μL/min. • The immobilization procedure was performed at 25° C., following Cytiva's recommendations, as described in Table 23.
This procedure allowed to reach immobilization levels between 6000 and 9000 RU of anti-human Fc antibodies on the sensor chip surface.
• CAIX (Sino Biological, 10107-H02H) stock solution was prepared from lyophilized material reconstituted with deionized water to a concentration of 0.25 μg/mL (3.69 μM), following the supplier recommendations. • CAIX working solution was obtained after dilution of CAIX stock solution with PBS-P+1×, 0.1% DMSO to a final concentration of 200 nM directly in a Biacore™ plastic vial.
• For each measurement, the raw surface plasmon resonance response (RU) was plotted against time (s) as a sensorgram using the Biacore™ T200 Control Software. • Raw data were corrected by double referencing with subtraction of the signal of both the reference flow-cell and the blank cycle. • The association and dissociation rate constants (ka and kd, respectively), as well as the dissociation constant KD and dissociation half-life t1/2 were determined from the corrected sensorgrams by fitting the data to a 1:1 Langmuir binding model with the Biacore™ T200 evaluation software.

CC[C@H](C)[C@@H]1NC(=O)[C@H](CCC(=O)O)NC(=O)[C@@H](NC(=O)[C@H](CCC(N)=O)NC(=O)[C@@H](N)CCSC)CSCc2cccc(c2)CSC[C@@H](C(=O)NCCCOCCOCCOCCCNC(=O)CCC(=O)N[C@@H](CCCCNC(=O)CCCC[C@@H]2SC[C@@H]3NC(=O)N[C@@H]32)C(N)=O)NC(=O)[C@H]([C@@H](C)O)NC(=O)[C@H](C(C)C)NC(=O)[C@H](Cc2c[nH]c3ccccc23)NC(=O)CNC(=O)[C@H](CC(=O)O)NC(=O)[C@H](C(C)C)NC(=O)[C@H](Cc2c[nH]c3ccccc23)NC1=O [3BP-2775] (H-MQCEIWVDGWVTC-X47; linker 3-13 via mXylylene)
EC50 [1]: 10 to 79.4 nM

CSCC[C@H](N)C(=O)N[C@H](C(=O)N[C@@H](Cc1ccc(O)cc1)C(=O)N[C@H]1CSCc2cccc(c2)CSC[C@@H](C(=O)NCCCOCCOCCOCCCNC(=O)CCC(=O)N[C@@H](CCCCNC(=O)CCCC[C@@H]2SC[C@@H]3NC(=O)N[C@@H]32)C(N)=O)NC(=O)[C@H](CCC(N)=O)NC(=O)[C@H](Cc2c[nH]c3ccccc23)NC(=O)[C@H]([C@@H](C)O)NC(=O)[C@H](CC(C)C)NC(=O)[C@H](Cc2c[nH]c3ccccc23)NC(=O)[C@H](CC(=O)O)NC(=O)CNC(=O)[C@H](CCC(=O)O)NC1=O)C(C)C [3BP-2776] (H-MVYCEGDWLTWQC-X47; linker 4-13 via mXylylene)
EC50 [1]: < 10 nM

CSCC[C@H](N)C(=O)N[C@H](C(=O)N[C@@H](Cc1ccc(O)cc1)C(=O)N[C@H]1CSCc2cccc(c2)CSC[C@@H](C(=O)NCCCOCCOCCOCCCNC(=O)CCC(=O)N[C@@H](CCCCNC(=O)CCCC[C@@H]2SC[C@@H]3NC(=O)N[C@@H]32)C(N)=O)NC(=O)[C@H](CO)NC(=O)[C@H](Cc2c[nH]c3ccccc23)NC(=O)CNC(=O)[C@H](CC(C)C)NC(=O)[C@H](Cc2c[nH]c3ccccc23)NC(=O)[C@H](CO)NC(=O)CNC(=O)[C@H](CCC(=O)O)NC1=O)C(C)C [3BP-2777] (H-MVYCEGSWLGWSC-X47; linker 4-13 via mXylylene)
EC50 [1]: < 10 nM

CC[C@H](C)[C@@H]1NC(=O)[C@H](CCC(=O)O)NC(=O)[C@@H](NC(=O)[C@H](CCCNC(=N)N)NC(=O)[C@@H](N)CCSC)CSCc2cccc(c2)CSC[C@@H](C(=O)NCCCOCCOCCOCCCNC(=O)CCC(=O)N[C@@H](CCCCNC(=O)CCCC[C@@H]2SC[C@@H]3NC(=O)N[C@@H]32)C(N)=O)NC(=O)[C@H](CC(=O)O)NC(=O)[C@H](C(C)C)NC(=O)[C@H](Cc2c[nH]c3ccccc23)NC(=O)CNC(=O)[C@H](CC(=O)O)NC(=O)[C@H](C(C)C)NC(=O)[C@H](Cc2c[nH]c3ccccc23)NC1=O [3BP-2778] (H-MRCEIWVDGWVDC-X47; linker 3-13 via mXylylene)
EC50 [1]: < 10 nM

CC(C)C[C@@H]1NC(=O)[C@H](Cc2cccc(NC(=O)CCCS(N)(=O)=O)c2)NC(=O)[C@H](CC(=O)O)NC(=O)[C@H]2CCCN2C(=O)[C@H](CCC(=O)O)NC(=O)[C@@H](NC(=O)[C@H](CCC(N)=O)NC(=O)CN2CCN(C(=O)CN3CCN(CC(=O)O)CCN(CC(=O)O)CCN(CC(=O)O)CC3)CC2)CSCc2cccc(c2)CSC[C@@H](C(N)=O)NC(=O)[C@H](CO)NC(=O)[C@H](Cc2c[nH]c3ccccc23)NC(=O)[C@H]([C@@H](C)O)NC1=O [^68Ga-DPI-4452, metal not drawn]
tolerability of treatment [2]: well tolerated
uptake in tumor compared to kidney and liver [2]: Preferential tumor uptake
tolerability of treatment [3]: well tolerated
uptake in tumor compared to kidney and liver [3]: Preferential tumor uptake

CC(C)C[C@@H]1NC(=O)[C@H](Cc2cccc(NC(=O)CCCS(N)(=O)=O)c2)NC(=O)[C@H](CC(=O)O)NC(=O)[C@H]2CCCN2C(=O)[C@H](CCC(=O)O)NC(=O)[C@@H](NC(=O)[C@H](CCC(N)=O)NC(=O)CN2CCN(C(=O)CN3CCN(CC(=O)O)CCN(CC(=O)O)CCN(CC(=O)O)CC3)CC2)CSCc2cccc(c2)CSC[C@@H](C(N)=O)NC(=O)[C@H](CO)NC(=O)[C@H](Cc2c[nH]c3ccccc23)NC(=O)[C@H]([C@@H](C)O)NC1=O [^177Lu-DPI-4452, metal not drawn]
white blood cells, lymphocytes and neutrophils versus vehicle ([2]; 33/100 MBq): relative suppression
creatinine and urea levels ([2]; plasma, day 14 and study end): No differences in creatinine and urea levels between treatment groups
tolerability of treatment [2]: well tolerated
uptake in tumor compared to kidney and liver [2]: Preferential uptake in the tumor compared to kidney and liver
white blood cells, lymphocytes and neutrophils versus vehicle ([3]; 33/100 MBq): relative suppression
tolerability of treatment [3]: well tolerated
uptake in tumor compared to kidney and liver [3]: Preferential uptake in the tumor compared to kidney and liver

CC(C)C[C@@H]1NC(=O)[C@H](Cc2cccc(NC(=O)CCCS(N)(=O)=O)c2)NC(=O)[C@H](CC(=O)O)NC(=O)[C@H]2CCCN2C(=O)[C@H](CCC(=O)O)NC(=O)[C@@H](NC(=O)[C@H](CCC(N)=O)NC(=O)CN2CCN(C(=O)CN3CCN(CC(=O)O)CCN(CC(=O)O)CCN(CC(=O)O)CC3)CC2)CSCc2cccc(c2)CSC[C@@H](C(N)=O)NC(=O)[C@H](CO)NC(=O)[C@H](Cc2c[nH]c3ccccc23)NC(=O)[C@H]([C@@H](C)O)NC1=O [^natGa-DPI-4452, metal not drawn]
affinity of binding to CAIX (human CAIX): subnanomolar affinity

CC(C)C[C@@H]1NC(=O)[C@H](Cc2cccc(NC(=O)CCCS(N)(=O)=O)c2)NC(=O)[C@H](CC(=O)O)NC(=O)[C@H]2CCCN2C(=O)[C@H](CCC(=O)O)NC(=O)[C@@H](NC(=O)[C@H](CCC(N)=O)NC(=O)CN2CCN(C(=O)CN3CCN(CC(=O)O)CCN(CC(=O)O)CCN(CC(=O)O)CC3)CC2)CSCc2cccc(c2)CSC[C@@H](C(N)=O)NC(=O)[C@H](CO)NC(=O)[C@H](Cc2c[nH]c3ccccc23)NC(=O)[C@H]([C@@H](C)O)NC1=O [^natLu-DPI-4452, metal not drawn]
affinity of binding to CAIX (human CAIX): subnanomolar affinity
